Calls of active or inactive are those of the source. The rule behind the calls is not given here.
What was measured:
[1] = Cytotoxicity against human SW620/AD300 cells assessed as cell viability after 48 hrs by MTT assay; type: cell-based; conditions: SW-620, 48 h
HCT-116 = experiment: Cytotoxicity against human HCT116 cells assessed as cell viability after 48 hrs by MTT assay; type: cell-based; conditions: HCT-116, 48 h
[2] = Cytotoxicity against human CCD-18Co cells assessed as cell viability after 48 hrs by MTT assay; type: cell-based
[3] = Cytotoxicity against human HFE cells assessed as cell viability after 72 hrs by MTT assay; type: cell-based
[4] = biological target: Multidrug resistance-associated protein 1 (Homo sapiens, UniProt P33527); experiment: Inhibition of MRP1 (unknown origin)-mediated calcein-AM efflux expressed in HEK293/MRP1 cells at 0.5 uM after 1 hr by flow cytometry; type: cell-based; conditions: hek293/mrp1, 1 h
Chain of Multidrug resistance-associated protein 1 (P33527 whole entry): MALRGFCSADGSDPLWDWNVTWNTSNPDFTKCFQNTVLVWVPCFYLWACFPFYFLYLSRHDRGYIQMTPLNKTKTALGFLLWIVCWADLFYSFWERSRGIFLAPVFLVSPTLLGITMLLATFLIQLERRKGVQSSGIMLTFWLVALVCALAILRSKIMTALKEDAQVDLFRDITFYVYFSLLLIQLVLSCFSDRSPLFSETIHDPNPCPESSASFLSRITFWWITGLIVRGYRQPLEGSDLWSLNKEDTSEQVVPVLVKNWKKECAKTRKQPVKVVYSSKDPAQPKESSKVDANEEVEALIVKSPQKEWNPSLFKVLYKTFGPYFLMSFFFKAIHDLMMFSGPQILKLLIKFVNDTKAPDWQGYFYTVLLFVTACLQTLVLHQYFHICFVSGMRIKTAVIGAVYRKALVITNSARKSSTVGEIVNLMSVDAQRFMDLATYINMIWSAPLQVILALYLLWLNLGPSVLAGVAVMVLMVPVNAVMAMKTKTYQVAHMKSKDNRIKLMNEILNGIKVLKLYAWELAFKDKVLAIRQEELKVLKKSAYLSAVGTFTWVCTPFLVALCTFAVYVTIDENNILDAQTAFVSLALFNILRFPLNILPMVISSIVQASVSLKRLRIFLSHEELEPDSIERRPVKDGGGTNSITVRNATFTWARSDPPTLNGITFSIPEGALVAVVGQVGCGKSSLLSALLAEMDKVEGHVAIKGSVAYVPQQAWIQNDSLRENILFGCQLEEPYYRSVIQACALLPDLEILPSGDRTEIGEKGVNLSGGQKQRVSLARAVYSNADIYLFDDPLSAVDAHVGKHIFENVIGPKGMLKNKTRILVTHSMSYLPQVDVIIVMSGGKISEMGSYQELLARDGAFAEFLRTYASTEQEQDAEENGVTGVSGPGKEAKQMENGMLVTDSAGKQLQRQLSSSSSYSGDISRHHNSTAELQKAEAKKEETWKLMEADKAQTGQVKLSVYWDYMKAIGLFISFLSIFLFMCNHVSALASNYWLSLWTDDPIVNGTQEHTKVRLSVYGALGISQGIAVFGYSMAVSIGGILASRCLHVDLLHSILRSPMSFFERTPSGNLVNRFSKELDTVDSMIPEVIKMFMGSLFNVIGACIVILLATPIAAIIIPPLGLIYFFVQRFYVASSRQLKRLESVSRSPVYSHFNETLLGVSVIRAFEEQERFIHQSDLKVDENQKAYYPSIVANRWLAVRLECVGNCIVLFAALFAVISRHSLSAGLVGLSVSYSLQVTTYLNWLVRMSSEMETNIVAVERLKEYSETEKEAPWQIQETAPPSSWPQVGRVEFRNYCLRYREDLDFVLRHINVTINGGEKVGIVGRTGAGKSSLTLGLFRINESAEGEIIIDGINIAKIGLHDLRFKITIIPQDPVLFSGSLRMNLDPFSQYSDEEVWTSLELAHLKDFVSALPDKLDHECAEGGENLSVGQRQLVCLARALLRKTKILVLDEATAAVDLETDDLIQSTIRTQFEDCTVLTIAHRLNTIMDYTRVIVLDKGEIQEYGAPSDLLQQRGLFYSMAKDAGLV

SW-620 = experiment: Cytotoxicity against human SW620 cells assessed as cell viability after 48 hrs by MTT assay; type: cell-based; conditions: SW-620, 48 h
K562 [5] = experiment: Induction of UIC2 antibody binding to p-glycoprotein in human K562 cells at 0.5 uM preincubated for 10 mins followed by antibody addition measured after 45 mins by flow cytometry relative to tariquidar; type: cell-based
[6] = biological target: T1, Broad substrate specificity ATP-binding cassette transporter ABCG2 (Homo sapiens, UniProt Q9UNQ0); experiment: Induction of 5D3 antibody binding to BCRP in human K562 cells at 0.5 uM preincubated for 10 mins followed by antibody addition measured after 45 mins by flow cytometry relative to tariquidar; type: cell-based; conditions: k562, 0.75 h
T1 sequence (Q9UNQ0 whole entry): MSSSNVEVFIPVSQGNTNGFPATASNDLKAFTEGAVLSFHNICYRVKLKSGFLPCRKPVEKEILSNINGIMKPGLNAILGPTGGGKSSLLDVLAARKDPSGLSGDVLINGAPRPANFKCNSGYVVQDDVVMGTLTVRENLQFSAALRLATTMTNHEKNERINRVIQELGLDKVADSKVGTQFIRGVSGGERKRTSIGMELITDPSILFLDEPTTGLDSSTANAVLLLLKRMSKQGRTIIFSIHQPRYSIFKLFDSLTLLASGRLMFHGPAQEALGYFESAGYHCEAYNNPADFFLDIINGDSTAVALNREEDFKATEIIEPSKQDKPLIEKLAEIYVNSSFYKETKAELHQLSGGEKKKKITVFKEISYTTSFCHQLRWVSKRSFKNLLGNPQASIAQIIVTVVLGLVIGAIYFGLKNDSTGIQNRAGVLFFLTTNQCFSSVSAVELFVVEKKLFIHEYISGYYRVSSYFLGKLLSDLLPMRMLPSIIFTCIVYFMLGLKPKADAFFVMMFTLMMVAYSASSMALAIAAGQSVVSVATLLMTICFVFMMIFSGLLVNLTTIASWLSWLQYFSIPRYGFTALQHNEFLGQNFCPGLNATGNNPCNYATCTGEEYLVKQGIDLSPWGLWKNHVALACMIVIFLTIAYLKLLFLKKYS

Hepatocyte = experiment: Cytotoxicity against rat hepatocytes assessed as cell viability after 72 hrs by MTT assay; type: cell-based; conditions: Rattus norvegicus, Hepatocyte
[7] = Potentiation of paclitaxel-induced cytotoxicity against human LCC6 cells at 200 nM after 72 hrs by SRB assay relative to control; type: functional
[8] = biological target: T2, ATP-dependent translocase ABCB1 (Homo sapiens, UniProt P08183); experiment: Inhibition of p-glycoprotein-mediated rhodamine-123 efflux in human K562/p-gp cells at 0.5 uM after 1 hr by flow cytometry relative to tariquidar; type: cell-based; conditions: 1 h, 0.5 µM
T2 sequence (P08183 whole entry): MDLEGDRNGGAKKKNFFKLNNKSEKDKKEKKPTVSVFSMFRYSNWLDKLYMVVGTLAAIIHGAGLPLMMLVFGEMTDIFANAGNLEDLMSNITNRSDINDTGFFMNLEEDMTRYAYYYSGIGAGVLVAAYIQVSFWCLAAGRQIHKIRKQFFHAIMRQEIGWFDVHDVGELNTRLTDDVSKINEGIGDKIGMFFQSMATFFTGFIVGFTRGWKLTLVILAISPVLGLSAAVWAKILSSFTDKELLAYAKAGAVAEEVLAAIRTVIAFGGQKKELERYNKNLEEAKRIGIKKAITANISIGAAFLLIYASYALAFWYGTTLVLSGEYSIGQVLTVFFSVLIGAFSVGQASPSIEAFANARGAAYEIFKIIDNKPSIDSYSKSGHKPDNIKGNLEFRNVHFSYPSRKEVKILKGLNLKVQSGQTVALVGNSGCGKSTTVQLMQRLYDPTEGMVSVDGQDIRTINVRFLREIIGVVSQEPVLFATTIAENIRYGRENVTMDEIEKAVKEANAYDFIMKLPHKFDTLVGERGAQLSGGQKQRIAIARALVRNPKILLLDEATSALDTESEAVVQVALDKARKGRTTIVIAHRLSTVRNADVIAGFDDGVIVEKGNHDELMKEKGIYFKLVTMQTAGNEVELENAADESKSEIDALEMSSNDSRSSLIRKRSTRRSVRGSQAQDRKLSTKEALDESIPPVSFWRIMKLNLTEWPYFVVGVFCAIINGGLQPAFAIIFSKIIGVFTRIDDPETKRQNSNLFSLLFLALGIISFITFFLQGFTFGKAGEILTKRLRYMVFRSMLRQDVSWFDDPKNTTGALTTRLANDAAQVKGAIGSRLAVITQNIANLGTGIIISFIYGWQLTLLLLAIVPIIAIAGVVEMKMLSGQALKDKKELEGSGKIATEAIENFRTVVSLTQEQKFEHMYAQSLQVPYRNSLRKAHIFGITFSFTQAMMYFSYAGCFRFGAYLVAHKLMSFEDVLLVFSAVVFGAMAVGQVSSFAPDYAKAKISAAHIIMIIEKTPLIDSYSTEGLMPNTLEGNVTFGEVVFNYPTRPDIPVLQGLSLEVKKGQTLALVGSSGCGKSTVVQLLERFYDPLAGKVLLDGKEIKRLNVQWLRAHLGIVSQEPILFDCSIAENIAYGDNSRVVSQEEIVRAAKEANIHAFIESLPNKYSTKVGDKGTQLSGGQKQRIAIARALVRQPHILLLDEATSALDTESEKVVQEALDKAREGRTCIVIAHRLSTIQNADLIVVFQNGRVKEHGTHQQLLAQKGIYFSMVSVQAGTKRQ

[9] = biological target: T2, ATP-dependent translocase ABCB1; experiment: Inhibition of p-glycoprotein in human LCC6/MDR cells assessed as increase of paclitaxel-induced cytotoxicity at 200 nM after 72 hrs by SRB assay relative to control; type: cell-based; conditions: 0.2 µM
[10] = Cytotoxicity against human LCC6 cells at 200 nM after 72 hrs by SRB assay; type: cell-based; conditions: lcc6, 72 h, 0.2 µM
[11] = Cytotoxicity against human LCC6 cells expressing p-glycoprotein at 200 nM after 72 hrs by SRB assay; type: cell-based; conditions: lcc6, 72 h, 0.2 µM
[12] = biological target: T2, ATP-dependent translocase ABCB1; experiment: Inhibition of p-glycoprotein-mediated rhodamine-123 efflux in human K562/p-gp cells after 1 hr by flow cytometry; type: cell-based
K562 [13] = experiment: Effect on rhodamine-123 efflux in wild type human K562 cells at 0.5 uM after 1 hr by flow cytometry; type: ADME, cell-based; conditions: k562, 1 h
Homo sapiens = organism: Homo sapiens; experiment: Inhibition of p-glycoprotein (unknown origin) expressed in High five insect cell membranes assessed as ATP hydrolysis after 20 mins by colorimetric ATPase assay

SMILES | inhibition (INH) [4] | Activity [6] | inhibition (INH) [8] | inhibition (INH) [12] | IC50 [1] [µM] | IC50 (HCT-116) [µM] | IC50 [2] [µM] | IC50 [3] [µM] | IC50 (SW-620) [µM] | Activity (K562 [5]) | IC50 (Hepatocyte) [µM] | fold change (FC) [7] | fold change (FC) [9] | Activity [10] | Activity [11] | Activity (K562 [13]) | inhibition (Homo sapiens)
COc1cc2c(cc1OC)CN(CCc1ccc(NC(=O)c3ccccc3NS(=O)(=O)c3ccc(F)cc3)cc1)CC2 | Not Active |  |  |  | > 100 | > 100 | > 100 | > 100 | > 100 |  |  |  |  |  |  |  | 
COc1cc2c(cc1OC)CN(CCc1ccc(NC(=O)c3ccccc3NS(=O)(=O)c3ccc(Cl)cc3)cc1)CC2 |  |  |  |  | > 100 | > 100 | > 100 | > 5 | > 100 |  |  |  |  |  |  |  | 
COc1cc2c(cc1OC)CN(CCc1ccc(NC(=O)c3ccccc3NS(=O)(=O)c3cccc4c(N(C)C)cccc34)cc1)CC2 | Not Active |  |  |  | > 100 | > 100 | > 100 | > 100 | > 100 |  |  |  |  |  |  |  | 
COc1cc2c(cc1OC)CN(CCc1ccc(NC(=O)c3ccccc3NS(=O)(=O)c3ccccc3C(F)(F)F)cc1)CC2 | Not Active |  |  |  | > 100 | > 100 | > 100 | > 100 | > 100 |  | 100 |  |  |  |  |  | 
COc1cc2c(cc1OC)CN(CCc1ccc(NC(=O)c3cc(OC)c(OC)cc3NS(=O)(=O)c3ccc(C(C)(C)C)cc3)cc1)CC2 | Not Active |  | Active | Dose-dependent effect | > 100 | > 100 | > 100 | > 5 | > 100 | 70.7% |  | 1 | 21 | Non-toxic | Non-toxic | Non-toxic | Dose-dependent effect
COc1cc2c(cc1OC)CN(CCc1ccc(NC(=O)c3cc(OC)c(OC)cc3NS(=O)(=O)c3ccc(C)cc3)cc1)CC2 | Not Active |  |  |  | > 100 | > 100 | > 100 | > 100 | > 100 |  | 100 |  |  |  |  |  | 
COc1cc2c(cc1OC)CN(CCc1ccc(NC(=O)c3ccccc3NS(=O)(=O)c3ccc(NC(C)=O)cc3)cc1)CC2 | Not Active |  |  |  | > 100 | > 100 | > 100 | > 100 | > 100 |  |  |  |  |  |  |  | 

Second part, led by results:

inhibition (INH) [4] | Activity [6] | inhibition (INH) [8] | inhibition (INH) [12] | SMILES | IC50 [1] [µM] | IC50 (HCT-116) [µM] | IC50 [2] [µM] | IC50 [3] [µM] | IC50 (SW-620) [µM] | Activity (K562 [5]) | IC50 (Hepatocyte) [µM] | fold change (FC) [7] | fold change (FC) [9] | Activity [10] | Activity [11] | Activity (K562 [13]) | inhibition (Homo sapiens)
Not Active | Not Active |  |  | COc1cc2c(cc1OC)CN(CCc1ccc(NC(=O)c3ccccc3NS(=O)(=O)c3ccc(C)cc3)cc1)CC2 | > 100 | > 100 | > 100 | > 100 | > 100 | inactive |  |  |  |  |  |  | 
Not Active |  |  |  | COc1cc2c(cc1OC)CN(CCc1ccc(NC(=O)c3ccccc3NS(=O)(=O)c3c(C)cc(C)cc3C)cc1)CC2 | > 100 | > 100 | > 100 | > 100 | > 100 |  | 100 |  |  |  |  |  | 
Not Active |  |  |  | COc1cc2c(cc1OC)CN(CCc1ccc(NC(=O)c3ccccc3NS(=O)(=O)c3cc(Cl)ccc3Cl)cc1)CC2 | > 100 | 25 | > 100 | > 100 | > 100 |  |  |  |  |  |  |  | 

Source: ChEMBL document CHEMBL3611986, “Reversal of P-gp and BCRP-mediated MDR by tariquidar derivatives” (Eur J Med Chem, 2015)
